According to PubChem BioAssay AID1919001 (Molecular Pharmacology Branch, DTP, NCI, 2023):
pIC50: −log10 of the molar value. Where “and” joins values, the source holds several entries; their conditions need not be identical. Identical values can stand only once.

System: 699152-130-R-J1-PDC complex spheroid growth
Experiment: Anticancer human tumor 699152-130-R-J1-PDC patient-derived pancreatic carcinoma cell line growth inhibition [AhR]
Details: for viability, T/C: stronger effect = lower value
Description: Multicellular complex tumor spheroid response to aryl hydrocarbon receptor antagonists in combination with a variety of drugs and investigational agents in selected tumor cell lines
The current study was undertaken to assess response to aryl hydrocarbon receptor antagonists in combination with standard-of-care drugs and investigational agents in solid tumor complex spheroid models. Complex spheroids include a stromal component modeled by human endothelial cells (HUVEC) and fibroblasts modeled by human mesenchymal stem cells (MSCs). The concentration ranges selected for each drug and investigational agent were based upon clinically achievable concentrations if the clinical Cmax of the agent was known.
Compounds. The drugs and investigational agents: BAY 2416964 (NSC825713), GNF351 (NSC835774), CH-223191 (NSC835775), CPI-455 (NSC825282), aza-TdCyd (NSC777586), decitabine (NSC127716), belinostat (NSC758774), entinostat (NSC756642), pevonedistat (NSC761192), tazemetostat (NSC777109), talazoparib (NSC765396), olaparib (NSC753686), selinexor (NSC780203), nedisertib (M3814, NSC802822), bortezomib (NSC756655), venetoclax (NSC766270), doxorubicin (NSC123127), elimusertib (BAY189344, NSC800525), ceralasertib (AZD6738, NSC777638), TAK-243 (NSC785004), alisertib (NSC759677), etoposide (NSC141540), topotecan (NSC609699), eribulin (NSC707389), gemcitabine (NSC613327), carboplatin (NSC241240), cisplatin (NSC119875), and SN-38 (NSC673596) were obtained from the National Cancer Institute (NCI) Developmental Therapeutics Program Chemical Repository (32). The FDA-approved anticancer drug set is available from the Developmental Therapeutics Program at https://dtp.cancer.gov/organization/dscb/obtaining/available plates.htm. […] The stock solutions were prepared in dimethyl sulfoxide (DMSO, Sigma-Aldrich, St. Louis, MO, cat. D2650), except for the platinum compounds which were prepared in saline (Quality Biological, Gaithersburg, MD, cat. 114-055-101), at 800-fold the tested concentration and stored at -70 degrees C prior to their use. All drugs and investigational agents were tested over a range starting from a high concentration at or near the clinical Cmax and decreasing in half-log increments. If the clinical Cmax for an agent had not been determined, the highest concentration tested was 10 microM (Table 1).
Cell Culture. All cells were maintained in an incubator at 37 degrees C and 5% CO2 with 95% humidity. The PDC lines were cultured according to standard operating procedures established by the NCI PDMR (https://pdmr.cancer.gov). Briefly, all PDCs were thawed and cultured in Matrigel-coated flasks prepared with a working solution of 1X Ham's F-12 nutrient mix, without supplementation (Invitrogen, Waltham, MA, cat. 11765054), 100 U/mL penicillin-streptomycin (Invitrogen, cat. 15140122), and 2.5% Matrigel (Corning Inc., Corning, NY, cat. 354248) for the first three passages. All PDCs were cultured in complete DMEM/F-12 media containing advanced DMEM/F-12 (Invitrogen, cat. 12634028), 4.9% defined fetal bovine serum, heat inactivated (HyClone Laboratories Inc., Logan, UT, cat. SH30070.03HI), 389 ng/mL hydrocortisone (Sigma-Aldrich, cat. H4001), 9.7 ng/mL human EGF recombinant protein (Invitrogen, cat. PHG0313), 23.4 microg/mL adenine (Sigma-Aldrich, cat. A2786), 97.3 U/mL penicillin-streptomycin (Invitrogen, cat. 15140122), 1.9 mM L-glutamine (Invitrogen, cat. 25030081), and 9.7 microM Y-27632 dihydrochloride (Tocris Bioscience, Bristol, United Kingdom, cat. 1254). The PDCs were cultured in complete DMEM/F12 media without 10 microM Y-27632 dihydrochloride for at least two passages prior to the screen. The established cell lines NCI-H1341 and […] were cultured in DMEM/F-12, HEPES (Invitrogen, cat. 11330032), 5% defined fetal bovine serum (HyClone Laboratories Inc., cat. SH30070.03), ITS premix universal culture supplement [insulin (5 microg/mL), transferrin (5 microg/mL), and selenious acid (5 ng/mL)] […]

[1] = curve of first compound, second compound 0.1 µM
[2] = curve of first compound, second compound 0.316 µM
[3] = curve of first compound, second compound 1 µM
[4] = curve of first compound, second compound 3.16 µM
[5] = curve of first compound, second compound 10 µM
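Note: compound exposure lasted 7 days after spheroids had grown for 3 days.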

In the case of `CC1COCCN1c1cc(C2(S(C)(=N)=O)CC2)nc(-c2ccnc3[nH]ccc23)n1` (configuration not stated), the viability, T/C (compound 0.0316 µM) was 100% and 99.4% and 98.3%, the viability, T/C (compound 0.1 µM) was 103% and 95.1% and 112% and the viability, T/C (compound 0.316 µM) was 91.5% and 95.4% and 103%. The viability, T/C (compound 1 µM) was 96.7% and 88.4% and 104%, the viability, T/C (compound 3.16 µM) was 93% and 82.9% and 89.2% and the viability, T/C (compound 10 µM) was 78% and 67.5% and 71.1%. For the same compound, the pIC50 (curve of compound) was < 5.00.

With `Cn1ncnc1C1c2n[nH]c(=O)c3cc(F)cc(c23)NC1c1ccc(F)cc1` (configuration not stated) + CC(CO)NC(=O)c1cc(-c2ccc(Cl)cc2)nn(-c2cnn(C)c2)c1=O the pIC50 [1] was < 7.00, the pIC50 [2] was < 7.00 and the pIC50 [3] was < 7.00. For the same compound, the pIC50 [4] was < 7.00, the pIC50 [5] was < 7.00 and the viability, T/C (second compound 0.1 µM, first compound 0.000316 µM) was 102%. It also gave a viability, T/C (second compound 0.1 µM, first compound 0.001 µM) of 113%, a viability, T/C (second compound 0.1 µM, first compound 0.00316 µM) of 104% and a viability, T/C (second compound 0.1 µM, first compound 0.01 µM) of 108%. It also gave a viability, T/C (second compound 0.1 µM, first compound 0.0316 µM) of 102%, a viability, T/C (second compound 0.1 µM, first compound 0.1 µM) of 98.9% and a viability, T/C (second compound 0.316 µM, first compound 0.000316 µM) of 105%. It also gave a viability, T/C (second compound 0.316 µM, first compound 0.001 µM) of 102%, a viability, T/C (second compound 0.316 µM, first compound 0.00316 µM) of 120% and a viability, T/C (second compound 0.316 µM, first compound 0.01 µM) of 103%. The viability, T/C (second compound 0.316 µM, first compound 0.0316 µM) was 86.2%, the viability, T/C (second compound 0.316 µM, first compound 0.1 µM) was 103% and the viability, T/C (second compound 1 µM, first compound 0.000316 µM) was 101%. The viability, T/C (second compound 1 µM, first compound 0.001 µM) was 99.3%, the viability, T/C (second compound 1 µM, first compound 0.00316 µM) was 102% and the viability, T/C (second compound 1 µM, first compound 0.01 µM) was 101%. The viability, T/C (second compound 1 µM, first compound 0.0316 µM) was 101%, the viability, T/C (second compound 1 µM, first compound 0.1 µM) was 102% and the viability, T/C (second compound 3.16 µM, first compound 0.000316 µM) was 91.5%. For the same compound, the viability, T/C (second compound 3.16 µM, first compound 0.001 µM) was 95.3%, the viability, T/C (second compound 3.16 µM, first compound 0.00316 µM) was 97.6% and the viability, T/C (second compound 3.16 µM, first compound 0.01 µM) was 96.9%. It also gave a viability, T/C (second compound 3.16 µM, first compound 0.0316 µM) of 92.9%, a viability, T/C (second compound 3.16 µM, first compound 0.1 µM) of 84.2% and a viability, T/C (second compound 10 µM, first compound 0.000316 µM) of 95.4%. It also gave a viability, T/C (second compound 10 µM, first compound 0.001 µM) of 81.3%, a viability, T/C (second compound 10 µM, first compound 0.00316 µM) of 91% and a viability, T/C (second compound 10 µM, first compound 0.01 µM) of 85.5%. It also gave a viability, T/C (second compound 10 µM, first compound 0.0316 µM) of 80.1% and a viability, T/C (second compound 10 µM, first compound 0.1 µM) of 79.5%.

With `CC(C)CC(NC(=O)C(Cc1ccccc1)NC(=O)c1cnccn1)B(O)O` (configuration not stated) + Cc1cncc(-c2nc(NCCc3c[nH]c4ccccc34)c3ncn(C(C)C)c3n2)c1 the pIC50 [1] was 7.82, the pIC50 [2] was 7.79 and the pIC50 [3] was 7.77. For the same compound, the pIC50 [4] was 7.80, the pIC50 [5] was > 9.02 and the viability, T/C (second compound 0.1 µM, first compound 0.000949 µM) was 107%. For the same compound, the viability, T/C (second compound 0.1 µM, first compound 0.003 µM) was 104%, the viability, T/C (second compound 0.1 µM, first compound 0.00949 µM) was 82.4% and the viability, T/C (second compound 0.1 µM, first compound 0.03 µM) was 1.43%. It also gave a viability, T/C (second compound 0.1 µM, first compound 0.0949 µM) of 2.12%, a viability, T/C (second compound 0.1 µM, first compound 0.3 µM) of 0.56% and a viability, T/C (second compound 0.316 µM, first compound 0.000949 µM) of 99.4%. It also gave a viability, T/C (second compound 0.316 µM, first compound 0.003 µM) of 112%, a viability, T/C (second compound 0.316 µM, first compound 0.00949 µM) of 93.8% and a viability, T/C (second compound 0.316 µM, first compound 0.03 µM) of 0.83%. For the same compound, the viability, T/C (second compound 0.316 µM, first compound 0.0949 µM) was 0.54%, the viability, T/C (second compound 0.316 µM, first compound 0.3 µM) was 0.39% and the viability, T/C (second compound 1 µM, first compound 0.000949 µM) was 119%. It also gave a viability, T/C (second compound 1 µM, first compound 0.003 µM) of 111%, a viability, T/C (second compound 1 µM, first compound 0.00949 µM) of 100% and a viability, T/C (second compound 1 µM, first compound 0.03 µM) of 0.8%. The viability, T/C (second compound 1 µM, first compound 0.0949 µM) was 0.31%, the viability, T/C (second compound 1 µM, first compound 0.3 µM) was 0.34% and the viability, T/C (second compound 3.16 µM, first compound 0.000949 µM) was 80.3%. The viability, T/C (second compound 3.16 µM, first compound 0.003 µM) was 92.8%, the viability, T/C (second compound 3.16 µM, first compound 0.00949 µM) was 91.3% and the viability, T/C (second compound 3.16 µM, first compound 0.03 µM) was 0.56%. For the same compound, the viability, T/C (second compound 3.16 µM, first compound 0.0949 µM) was 0.26%, the viability, T/C (second compound 3.16 µM, first compound 0.3 µM) was 0.31% and the viability, T/C (second compound 10 µM, first compound 0.000949 µM) was 10.4%. The viability, T/C (second compound 10 µM, first compound 0.003 µM) was 12.2%, the viability, T/C (second compound 10 µM, first compound 0.00949 µM) was 5.17% and the viability, T/C (second compound 10 µM, first compound 0.03 µM) was 0.33%. The viability, T/C (second compound 10 µM, first compound 0.0949 µM) was 0.3% and the viability, T/C (second compound 10 µM, first compound 0.3 µM) was 0.39%.
